Laboratory results as given in ChEMBL document CHEMBL4428104, “Synthesis and antibacterial evaluation of hamacanthin B analogues” (2016).
Values after ≈ are worked out from the molar mass of the structure shown.

Columns and labels:
Assay type in all cases: functional
[1] = tested on: Staphylococcus aureus; assay: Antibacterial activity against Staphylococcus aureus SG 511 after 24 hrs by two fold serial dilution method; conditions: SG 511, 24 h
[2] = tested on: Staphylococcus aureus; assay: Antibacterial activity against methicillin resistant Staphylococcus aureus 3089 after 24 hrs by two fold serial dilution method; conditions: Staphylococcus aureus, 3089, 24 h
[3] = tested on: Escherichia coli; assay: Antibacterial activity against multidrug resistant Escherichia coli 1137 after 24 hrs by two fold serial dilution method
[4] = tested on: Enterococcus faecalis; assay: Antibacterial activity against multidrug resistant Enterococcus faecalis 5210 after 24 hrs by two fold serial dilution method
[5] = Enterococcus faecalis, 5210, 24 h

With `O=C1NC[C@H](c2c[nH]c3ccccc23)N[C@@H]1c1c[nH]c2cc(Br)ccc12` the MIC [1] was 20 µg/mL (≈ 48.9 µM), the MIC [2] was > 40 µg/mL and the MIC ([3]; Escherichia coli, 1137, 24 h) was > 40 µg/mL. The MIC [4, 5] was > 40 µg/mL.

Work on `CN(C)[C@@H]1C(O)=C(C(N)=O)C(=O)[C@@]2(O)C(O)=C3C(=O)c4c(O)cccc4[C@@](C)(O)[C@H]3C[C@@H]12` [TETRACYCLINE] yielded an MIC [1] of 0.16 µg/mL (≈ 0.36 µM).

In the case of GENTAMICIN, the MIC [3] is reported as > 40 µg/mL and the MIC [4] is reported as > 40 µg/mL.

In the case of `O=C1NC[C@@H](c2c[nH]c3cc(Br)ccc23)N[C@H]1c1c[nH]c2cc(Br)ccc12` [CIS-3,4-DIHYDROHAMACANTHIN B], the MIC [1] is reported as 10 µg/mL (≈ 20.5 µM), the MIC [2] is reported as 20 µg/mL (≈ 41 µM) and the MIC ([3]; Escherichia coli, 1137, 24 h) is reported as > 40 µg/mL. The MIC [4, 5] was 40 µg/mL (≈ 81.9 µM).

`CN[C@H](CC(C)C)C(=O)N[C@H]1C(=O)N[C@@H](CC(N)=O)C(=O)N[C@H]2C(=O)N[C@H]3C(=O)N[C@H](C(=O)N[C@H](C(=O)O)c4cc(O)cc(O)c4-c4cc3ccc4O)[C@H](O)c3ccc(c(Cl)c3)Oc3cc2cc(c3O[C@@H]2O[C@H](CO)[C@@H](O)[C@H](O)[C@H]2O[C@H]2C[C@](C)(N)[C@H](O)[C@H](C)O2)Oc2ccc(cc2Cl)[C@H]1O` [VANCOMYCIN] gave an MIC [2] of 1.25 µg/mL (≈ 0.863 µM) and an MIC [4, 5] of 2.5 µg/mL (≈ 1.73 µM).

For `O=C(NCC(=O)c1c[nH]c2ccccc12)C(=O)c1c[nH]c2cc(Br)ccc12`, the MIC [1] was > 40 µg/mL, the MIC [2] was > 40 µg/mL and the MIC ([3]; Escherichia coli, 1137, 24 h) was > 40 µg/mL. The MIC [4, 5] was > 40 µg/mL.

In the case of `O=C1NC[C@H](c2c[nH]c3cc(Br)ccc23)N[C@@H]1c1c[nH]c2cc(Br)ccc12`, the MIC [1] is reported as 20 µg/mL (≈ 41 µM), the MIC [2] is reported as 40 µg/mL (≈ 81.9 µM) and the MIC ([3]; Escherichia coli, 1137, 24 h) is reported as > 40 µg/mL. For the same compound, the MIC [4, 5] was > 40 µg/mL.

`O=c1[nH]cc(-c2c[nH]c3ccccc23)nc1-c1c[nH]c2cc(Br)ccc12` was tested, and the MIC [1] was 2.5 µg/mL (≈ 6.17 µM), the MIC [2] was 20 µg/mL (≈ 49.4 µM) and the MIC ([3]; Escherichia coli, 1137, 24 h) was > 40 µg/mL. For the same compound, the MIC [4, 5] was > 40 µg/mL.

With `O=C1NC[C@@H](c2c[nH]c3ccccc23)N[C@H]1c1c[nH]c2cc(Br)ccc12` the MIC [1] was 40 µg/mL (≈ 97.7 µM), the MIC [2] was > 40 µg/mL and the MIC ([3]; Escherichia coli, 1137, 24 h) was > 40 µg/mL. The MIC [4, 5] was > 40 µg/mL.

In the case of `O=c1[nH]cc(-c2c[nH]c3cc(Br)ccc23)nc1-c1c[nH]c2cc(Br)ccc12`, the MIC [1] is reported as 10 µg/mL (≈ 20.7 µM), the MIC [2] is reported as 20 µg/mL (≈ 41.3 µM) and the MIC ([3]; Escherichia coli, 1137, 24 h) is reported as > 40 µg/mL. The MIC [4, 5] was 20 µg/mL (≈ 41.3 µM).

`O=C(NCC(=O)c1c[nH]c2cc(Br)ccc12)C(=O)c1c[nH]c2cc(Br)ccc12` was tested, and the MIC [1] was > 40 µg/mL, the MIC [2] was > 40 µg/mL and the MIC ([3]; Escherichia coli, 1137, 24 h) was > 40 µg/mL. The MIC [4, 5] was > 40 µg/mL.

With `CCn1cc(C(=O)O)c(=O)c2cc(F)c(N3CCNCC3)cc21` [NORFLOXACIN] the MIC [2] was > 40 µg/mL and the MIC ([3]; Escherichia coli, 1137, 24 h) was 1.25 µg/mL (≈ 3.91 µM).
